Source: patent publication US7749725B2, “Drug screening and diagnosis based on paracrine tubular renin-angiotensin system” (University of Utah Research Foundation, priority 1998, dated 2010)
Entries after “also recorded” stand apart in the source; their conditions may differ.

Columns and labels:
[1] = tested on: renin expression in CNT cells; assay: Renin expression in CNT cells by quantitative histology (renin immunostaining) after sodium diet and diuretics; format: in vivo, C57BL6 mice
Protocol: (§1) 3. Animal experiments and measurements. C57BL6 mice were used following IRB approved protocols. Twenty-four hours prior to dietary sodium manipulations, all animals were fasted with free access to water, supplemented with 2% glucose and 0.1% KCl. Either one mg/kg amiloride and 2 mg/kg furosemide (52) or control carrier were applied by subcutaneous injection. Low sodium (0.3% sodium) and high sodium (6%) diets were purchased from Purina Mills (Purina Mills Inc., St. Louis, Mo.). Blood was collected by cardiac puncture. Spot urine was collected by bladder puncture. Hemidissected kidneys were formalin-fixed or snap-frozen in liquid nitrogen. For urine collection, mice were placed in metabolic cages (Nalgene, Nalge Nunc International, Rochester, N.Y.). Urine specimens were collected at 12 h intervals in tubes containing AEBSF and 8-hydroxyquinoline (NEN-DuPont, Boston, Mass.). Weight and urine volumes were recorded daily. Urinary Ang and A-I measurements were corrected for creatinine or expressed as total urinary Ang. RNA isolation and RT-PCR were performed following standard protocols (QIAGEN, Valencia, Calif.). […]
5. […] The biotinylated secondary antibody was detected using streptavidin conjugated with horseradish peroxidase or alkaline phosphatase and visualized with either 3-amino-9-ethyl-carbazole (AEC; Sigma) or NBT/BCIP, respectively. […]
6. Quantitative histology. Renin expression in renal tubular cells as a function of sodium diet, or diuretics, was assayed by quantitating the frequency of renin immunostaining in segments of the distal nephron using the peroxidase reporter enzyme and AEC chromogen. Two independent blinded investigators scored sagittal kidney for renin using a subjective 0-4 scale: 0 equaled no tubular renin staining; 1 equaled at least one positive cell per tubule segment; 2 equaled between 25-50% of cells per of tubule segment; 3 equaled more than 50% of cells per tubule segment stained for renin; 4 equaled >75%. […] Results were analyzed by comparing the mean±S.E.M. between groups using unpaired t-tests. p<0.05 was considered significant. […]

renin expression in JGA = assay: JGA renin expression by semiquantitative RT-PCR of total kidney RNA; format: in vivo, C57BL6 mice; conditions: overnight
Protocol: as §1, with “Ang.” for “Ang. RNA isolation and RT-PCR were performed following standard protocols (QIAGEN, Valencia, Calif.).”
On the basis of immunostaining and expression studies, we conclude that, in addition to its major site of expression in JGA, renin is also expressed in connecting tubule. […] Renin expression in CNT cells was assessed by quantitative histology (frequency of CNT cells staining for renin). […] Manipulation of dietary sodium was monitored by measuring total sodium excretion. […]

| Compound | renin expression in distal nephron ([1]; blocking the sodium channel of principal cells (summary statement)) | CNT immunoreactive renin ([1]; high sodium diet plus amiloride (one mg/kg, subcutaneous), overnight, vs high sodium alone) | JGA renin (renin expression in JGA; high sodium diet plus amiloride (one mg/kg, subcutaneous), p<0.05) | renin expression in CNT ([1]; sodium restriction plus furosemide (2 mg/kg, subcutaneous), overnight, vs sodium restriction alone) | JGA renin (renin expression in JGA; sodium restriction plus furosemide (2 mg/kg, subcutaneous), vs sodium restriction alone) |
| --- | --- | --- | --- | --- | --- |
| N=C(N)NC(=O)c1nc(Cl)c(N)nc1N [amiloride] | up-regulation | increased; also recorded: marked increase | significantly decreased | – | – |
| NS(=O)(=O)c1cc(C(=O)O)c(NCc2ccco2)cc1Cl [furosemide] | – | – | – | decreased | without additional effects |
